Eight compounds from PubChem BioAssay (NCI) can be followed below.

Among the test systems are A549 NSCLC; UACC-62 melanoma; NCI-H460 lung; SK-MEL-2 melanoma; CAKI-1 renal; 786-0 renal; SF-539 CNS; SNB-75 CNS; SW-620 colon; MDA-MB-435; OVCAR-4 ovarian; MDA-N; LOX IMVI melanoma; UACC-257 melanoma; IGROV1 ovarian; K-562 leukemia; OVCAR-8 ovarian.
What all share (experiment): NCI-60 cell line screen, 48 h

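Cultured in 96-well plates, cells were exposed to test compound for 48 hours across five concentrations. TGI marks complete inhibition of growth.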 Some results are limits rather than exact numbers.

In the case of `COc1ccc2c(c1)CC[C@@H]1[C@@H]2CC[C@]2(C)C(=O)/C(=C/c3ccc(OC)c(OC)c3)C[C@@H]12`, the TGI in the assay with A549 NSCLC, with UACC-62 melanoma, with NCI-H460 lung, in the assay on SK-MEL-2 melanoma, in the assay with CAKI-1 renal and in the assay on 786-0 renal was greater than 100 µM throughout. Moreover, the TGI with SF-539 CNS, in the assay with SNB-75 CNS, in the assay with SW-620 colon, in the assay with MDA-MB-435 and in the assay on OVCAR-4 ovarian was greater than 100 µM each time.
Take `O=c1cc(-c2ccccc2)[nH]c2cc3c(cc12)OCO3`: the TGI with MDA-N is greater than 100 µM; in the assay on LOX IMVI melanoma it was greater than 100 µM; in the assay on A549 NSCLC, greater than 100 µM; with UACC-62 melanoma, greater than 90.7 µM; with UACC-257 melanoma, greater than 100 µM; in the assay with NCI-H460 lung, greater than 57.8 µM. Moreover, the TGI with SK-MEL-2 melanoma was greater than 93.2 µM; with IGROV1 ovarian, greater than 100 µM; in the assay with 786-0 renal it was greater than 93 µM; with SF-539 CNS, 18.8 µM; in the assay on K-562 leukemia, greater than 100 µM; in the assay on OVCAR-8 ovarian it was greater than 100 µM. The TGI was 43.3 µM with SNB-75 CNS, greater than 100 µM in the assay on SW-620 colon and greater than 100 µM with OVCAR-4 ovarian.
For the compound `Cc1cn(C2CC(ON3C(=O)c4ccccc4C3=O)C(CO)O2)c(=O)[nH]c1=O` (stereo not drawn), the TGI in the assay with LOX IMVI melanoma, in the assay on A549 NSCLC, with UACC-62 melanoma, in the assay with UACC-257 melanoma, in the assay with NCI-H460 lung and in the assay on SK-MEL-2 melanoma was greater than 10 µM each time. The TGI in the assay with IGROV1 ovarian, in the assay with 786-0 renal, with SF-539 CNS, in the assay with K-562 leukemia, in the assay with OVCAR-8 ovarian and with SNB-75 CNS was greater than 10 µM in each case. Also, the TGI with SW-620 colon, with MDA-MB-435 and in the assay on OVCAR-4 ovarian was greater than 10 µM throughout.
`CO[C@H]1[C@@H](O)[C@@H](C)O[C@@H](O[C@H]2CC[C@@]3(C)[C@H](CC[C@@H]4[C@@H]3CC[C@]3(C)[C@@H](C5=CC(=O)OC5)[C@@H](OC(C)=O)C[C@]43O)C2)[C@@H]1O`: the TGI in the assay on LOX IMVI melanoma was determined as 0.194 µM; with A549 NSCLC, 0.0241 µM; in the assay on UACC-62 melanoma it was 0.215 µM; in the assay with UACC-257 melanoma, 0.239 µM; with NCI-H460 lung, 0.0617 µM; with SK-MEL-2 melanoma it was 0.345 µM. The TGI came to 0.0719 µM with CAKI-1 renal; 0.772 µM in the assay on IGROV1 ovarian; 0.067 µM in the assay with 786-0 renal; 0.091 µM in the assay with SF-539 CNS; 0.756 µM with K-562 leukemia; 0.152 µM in the assay with OVCAR-8 ovarian. For the same compound, the TGI in the assay with SNB-75 CNS was 0.332 µM; in the assay on SW-620 colon, greater than 50 µM; with MDA-MB-435 it was 0.407 µM; with OVCAR-4 ovarian it was 0.127 µM.
In the case of `CNC(=S)N/N=C(C)\C(=N/NC(=S)NC)c1ccccc1`, the TGI in the assay with MDA-N, in the assay on LOX IMVI melanoma, in the assay on A549 NSCLC, with UACC-62 melanoma, in the assay with UACC-257 melanoma and in the assay with NCI-H460 lung was greater than 100 µM each time. Besides, the TGI in the assay with CAKI-1 renal, in the assay on IGROV1 ovarian, in the assay on 786-0 renal, in the assay on SF-539 CNS and in the assay with SNB-75 CNS was greater than 100 µM each time.
As to `CCOC(=O)c1nc2c(Cl)c3ncccc3cc2[nH]c1=O`, the TGI was greater than 100 µM with A549 NSCLC; 50.4 µM in the assay on UACC-62 melanoma; greater than 100 µM with UACC-257 melanoma; 65.8 µM in the assay on NCI-H460 lung; greater than 100 µM in the assay with SK-MEL-2 melanoma; greater than 100 µM in the assay with CAKI-1 renal. The TGI with IGROV1 ovarian, in the assay on 786-0 renal, in the assay with SF-539 CNS, in the assay with K-562 leukemia, with OVCAR-8 ovarian and with SNB-75 CNS was greater than 100 µM throughout. For the same compound, the TGI with SW-620 colon, with MDA-MB-435 and in the assay on OVCAR-4 ovarian was greater than 100 µM in each case.
For the compound `O=C(O)c1ccc(NNc2cc(=O)[nH]c(=O)[nH]2)cc1`, the TGI with MDA-N, in the assay on LOX IMVI melanoma, with A549 NSCLC, in the assay on UACC-62 melanoma, in the assay with UACC-257 melanoma and in the assay with NCI-H460 lung was greater than 100 µM throughout. Also, the TGI in the assay on SK-MEL-2 melanoma, in the assay with IGROV1 ovarian, with 786-0 renal, in the assay with SF-539 CNS, with K-562 leukemia and in the assay with OVCAR-8 ovarian was greater than 100 µM throughout. The TGI with SNB-75 CNS, in the assay on SW-620 colon and with OVCAR-4 ovarian was greater than 100 µM in each case.
Turning to `CCOC(=O)C1=C(Nc2cccc(OC)c2)OCC1=O`, the TGI with LOX IMVI melanoma, with UACC-62 melanoma, in the assay with UACC-257 melanoma, in the assay with NCI-H460 lung, in the assay with SK-MEL-2 melanoma and in the assay on CAKI-1 renal was greater than 100 µM each time. The TGI with IGROV1 ovarian, in the assay with 786-0 renal, in the assay on SF-539 CNS, in the assay on K-562 leukemia, in the assay with OVCAR-8 ovarian and in the assay on SNB-75 CNS was greater than 100 µM in each case. Also, the TGI with SW-620 colon, with MDA-MB-435 and in the assay on OVCAR-4 ovarian was greater than 100 µM each time.
